# Calls of active or inactive are those of the source. How the calls were made is not given here.
# What was measured:
# [1] = inhibitors of PAF-induced NFkB signaling in CF airway cells, dose response, cell-based, uHTS hits, panel, cytotoxicity readout (AID 624344); conditions: CF bronchial epithelial cells, PAF-induced NFkB reporter inhibition; with PAF, mean of runs
# [2] = tested on: Cytotoxicity; assay: as above; conditions: CF bronchial epithelial cells, mean of runs
Structure (SMILES),IC50 [1],IC50 [2]
CCCCCCCCCCCCCCC(O)C[N+](C)(CCO)CCO (stereo unspecified),4.61 µM,5.47 µM
CCOC(=O)Oc1c(OC)cc(C(=O)O[C@@H]2C[C@@H]3CN4CCc5c([nH]c6cc(OC)ccc56)[C@H]4C[C@@H]3[C@H](C(=O)OC)[C@H]2OC)cc1OC,4.91 µM,58.8 µM (inactive)
O=C(NCCCSc1ccccc1)c1cc(Cl)ccc1O,5.03 µM,7.97 µM
O=S(=O)(CC(CN1CCCC1)N1CCCC1)c1ccc2ccccc2c1 (stereo unspecified),1.46 µM,2.35 µM
NC(=O)N/N=C/c1c(Sc2nnnn2-c2ccccc2)nc2ccccn2c1=O,0.653 µM,6.87 µM
c1cnc2ccc(-n3ccnc3)cc2c1,10.3 µM,60 µM (inactive)
O=C1NC(=S)N/C1=C/c1cccnc1,5.96 µM,41.8 µM
Cc1c(C(=O)OC2CCCC2)[nH]c2c1C(=O)CC(c1ccco1)C2 (stereo unspecified),inactive,46.3 µM
Cc1c(C=O)c(C=O)c(C)n1Cc1ccccc1,1.64 µM,4.67 µM
Cc1ccc(CCC(=O)Nc2ncc(Cc3cccc(Cl)c3Cl)s2)o1,8.87 µM,19.1 µM
Cc1nc2sc(C(N)=O)c(N)c2c2c1CCCC2,1.18 µM,64 µM (inactive)
O=C(Nc1ccc2ccccc2c1)c1ccccc1O,5.07 µM,2.5 µM
C/C=C/COC(=O)c1[nH]c2c(c1C)C(=O)CC(c1ccco1)C2 (stereo unspecified),inactive,52.8 µM (inactive)
NC(=O)c1nsc(C(=O)N(c2ccccc2F)C(C(=O)NCc2ccc(F)cc2)c2ccc(O)cc2)c1N (stereo unspecified),2.08 µM,6.55 µM
CCN(c1ccc(OC)cc1)c1ncnc2nc[nH]c12,3.62 µM,> 79 µM (inactive)
CCC(CO)Oc1cc(NCc2ccc(Cl)cc2Cl)c2ncn(C(C)C)c2c1 (stereo unspecified),inactive,11 µM
CCOC(=O)[C@@H]1[C@H]2COc3ccc(Br)cc3[C@H]2N2C(=O)N(c3ccc(C)cc3)C(=O)[C@]12C,> 79 µM (inactive),> 79 µM (inactive)
C=CC(=O)Nc1cccc(Oc2ncnc3[nH]cc(-c4cnc5ccccc5c4)c23)c1,1.35 µM,54.8 µM (inactive)
COc1ccc(C2=Nn3c(nnc3-c3ccccc3OC)SC2)cc1OC1CCOC1 (stereo unspecified),4.85 µM,> 79 µM (inactive)
Cc1ccc(Sc2c(C=O)c3ccccc3n2C)cc1,2 µM,18 µM
CCc1nc(Cl)c(C#N)c2c1CCCC2,2.87 µM,45.4 µM

Structure (SMILES),IC50 [1],IC50 [2]
O=c1[nH]c2ccccc2n1C1CCN(C(c2cccc3ccccc23)c2nnnn2Cc2ccccc2)CC1 (stereo unspecified),3.25 µM,10 µM
CN1CCN(S(=O)(=O)c2ccc(Sc3nnnn3-c3ccccc3)c([N+](=O)[O-])c2)CC1,2.06 µM,3.12 µM
CCc1ccccc1NC(=O)CN(C)C(=O)Cn1ncc(Cl)c(Cl)c1=O,6.43 µM,38 µM
Cc1cccc(NC(=O)c2nc(S(=O)(=O)Cc3ccccc3)ncc2Cl)c1,2.51 µM,3.39 µM
O=Nc1ccc(NO)c2ccccc12,7.21 µM,17.4 µM
c1cc(-c2nnc3sc(C4CCCCC4)nn23)ccn1,3.45 µM,> 79 µM (inactive)
Cn1cccc1C(=O)NC(=O)COC(=O)c1ccc(S(C)(=O)=O)c([N+](=O)[O-])c1,5.26 µM,5.85 µM
O=C(/C=C/c1cccc([N+](=O)[O-])c1)NC(=S)Nc1ccc(CN2CCOCC2)cc1,5.19 µM,19.8 µM
Cc1ccc(Cl)cc1-c1cc(C(=O)NCc2cc(C(F)(F)F)cc(C(F)(F)F)c2)[nH]n1,8.92 µM,16.6 µM
COc1ccc(-n2nnnc2C(c2cccs2)N2CCC(n3c(=O)[nH]c4ccccc43)CC2)cc1 (stereo unspecified),5.05 µM,14.2 µM
O=C(Nc1ccncc1)c1c(Cl)cccc1Cl,5.03 µM,38.9 µM
CCCCCCc1cc2cc(C(=O)Nc3ccccc3OC)c(=O)oc2cc1O,inactive,49.4 µM
CS(=O)(=O)Nc1ccc(-c2cnc3cccnn23)cc1,2.5 µM,> 79 µM (inactive)
CCCn1c(-c2nonc2N)nc2ccccc21,4.28 µM,31.6 µM
Cn1c(SC2=CS(=O)(=O)c3ccccc32)nc2ccccc21,1.83 µM,7.01 µM
Cc1ccc(CSc2nccc(-c3c(C)nc4ccccn34)n2)cc1,3.18 µM,26.4 µM
CN(C)c1ccc(C(C(=O)NC2CCCCC2)N(Cc2ccco2)C(=O)c2snc(C(N)=O)c2N)cc1 (stereo unspecified),4.04 µM,9.1 µM
CCc1c(C)nc2ccc(Br)cc2c1SCCC#N,3.12 µM,24.8 µM
Cc1cc(C)c2nc(C(F)(F)F)c(C#N)c(N)c2c1,0.827 µM,24.6 µM
CCOc1ccccc1NC(=S)Nc1ccc2cn[nH]c2c1,5.7 µM,58.5 µM (inactive)
O=S(=O)(Nc1ccc(Cl)cc1NS(=O)(=O)c1ccccc1)c1ccccc1,10 µM,40.3 µM

Structure (SMILES),IC50 [1],IC50 [2]
CCN(CC)S(=O)(=O)c1ccc(NC(=O)Nc2cccc(C(F)(F)F)c2)cc1,6.03 µM,12.2 µM
COc1ccc(-c2csc(NC3OC(=O)c4c3ccc(OC)c4OC)n2)cc1OC (stereo unspecified),3.12 µM,> 79 µM (inactive)
COc1ccc(C2=Nn3c(nnc3-c3ccncc3)SC2)cc1,2.72 µM,40 µM
Cc1cccc(CNc2ncnc3ccc(-c4ccoc4)cc23)c1,< 0.15 µM,6.04 µM
O=C(NCc1ccccc1)C1=C[C@H](c2csc3ccccc23)C[C@H](OCc2ccc(CO)cc2)O1,inactive,12.8 µM
CCOc1ccc(Nc2ncnc3ccc([N+](=O)[O-])cc23)cc1,1.67 µM,21.4 µM
Cc1ccc(C(=O)c2cc([N+](=O)[O-])ccc2N2CCCCC2)c(C)c1,6.86 µM,> 79 µM (inactive)
CCOc1cc2c(cc1O)C(=NO)CC1C2CCC2(C)C(O)CCC12 (stereo unspecified),17.5 µM,31 µM
O=S(=O)(c1cccc2cnccc12)N1CCCNCC1,4.07 µM,8.16 µM
COc1ccc(CN(C)C(=O)c2cc(-c3ccc(C)cc3C)nc3ccccc23)c(OC)c1OC,6.52 µM,7.07 µM
CN(CCC#N)C(=O)COC(=O)c1ccccc1C(=O)c1ccc(Cl)c([N+](=O)[O-])c1,5.31 µM,16.5 µM
CCC1=C(CC2NCCc3ccccc32)CC2c3cc(OC)c(OC)cc3CCN2C1 (stereo unspecified),4.34 µM,30 µM
O=S1(=O)CCC(NC(=S)SCCOc2ccccc2)C1 (stereo unspecified),4.58 µM,20.1 µM
COc1ccc(N=Cc2cc3c(cc2O)OC(N)=C(C#N)C3c2ccccc2)cc1 (stereo unspecified),3.4 µM,59.8 µM (inactive)
Cc1cccc(N2CCN(C(=O)c3[nH]c(C(F)(F)F)nc3-c3ccccc3)CC2)c1C,17.8 µM,> 79 µM (inactive)
CN(C)c1ccc(C(C(=O)NCc2ccccc2)N(Cc2ccco2)C(=O)c2snc(C(N)=O)c2N)cc1 (stereo unspecified),3.08 µM,6.97 µM
COc1cc(C2c3cc4c(c(O)c3CC3COC(=O)C32)OCO4)cc(OC)c1OC (stereo unspecified),inactive,> 79 µM (inactive)
O=C(Nc1ccc(C(=O)N2CCOCC2)cc1)Nc1cccc(C(F)(F)F)c1,1.69 µM,> 79 µM (inactive)
CCCCCc1cc(O)c2c(C)cc(=O)oc2c1,4.83 µM,7.62 µM
C=Cc1ccc(CC2(C)C(=O)Nc3ccc(-c4cccnc4)cc32)cc1 (stereo unspecified),3.36 µM,41.9 µM
C=C(c1ccc2nc(NC(=O)OC)[nH]c2c1)c1cccs1,5.04 µM,25.6 µM
